# Data taken from the supplement of paper PMC10307832.
# How the values were obtained:
# Assay in all cases: relative viability (nuclei count vs DMSO), 5 days (fraction); higher = more cells survive
# NCI-H23 = system: NCI-H23
# Summary of the method: (§1)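 Relative viability equals treated-well nuclei counts divided by vehicle-well nuclei counts. Counts came from 4× images of lung cancer cell lines grown in 1536-well plates for 5 days after pin-tool dosing on the day after seeding. Dosing used one drug alone or a fixed anchor-drug dose plus five library-drug doses (not always all listed) in √10 steps, and values are medians of duplicate plates.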
# SK-LU-1 = system: SK-LU-1
# Summary of the method: as §1
# LK-2 = system: LK-2
# Summary of the method: as §1
# LU99A = system: LU99A
# Summary of the method: as §1
# EKVX = system: EKVX
# Summary of the method: as §1
# NCI-H322M = system: NCI-H322M
# Summary of the method: as §1
# RERF-LC-KJ = system: RERF-LC-KJ
# Summary of the method: as §1
# NCI-H1666 = system: NCI-H1666
# Summary of the method: as §1
# EMC-BAC-2 = system: EMC-BAC-2
# Summary of the method: as §1
# NCI-H1975 = system: NCI-H1975
# Summary of the method: as §1
# EPLC-272H = system: EPLC-272H
# Summary of the method: as §1
# HCC-827 = system: HCC-827
# Summary of the method: as §1
# SW 1573 = system: SW 1573
# Summary of the method: as §1
# HCC-78 = system: HCC-78
# Summary of the method: as §1
# ChaGo-K-1 = system: ChaGo-K-1
# Summary of the method: as §1
# NCI-H2126 = system: NCI-H2126
# Summary of the method: as §1
# LXF-289 = system: LXF-289
# Summary of the method: as §1
# PC-14 = system: PC-14
# Summary of the method: as §1
# NCI-H2405 = system: NCI-H2405
# Summary of the method: as §1
smiles,measurement,setting,value
COc1nc(C)cnc1NS(=O)(=O)c1cccnc1-c1ccc(-c2nnco2)cc1 [Zibotentan] + CC1(C)CCC(c2ccc(Cl)cc2)=C(CN2CCN(c3ccc(C(=O)NS(=O)(=O)c4ccc(N[C@H](CCN5CCOCC5)CSc5ccccc5)c(S(=O)(=O)C(F)(F)F)c4)cc3)CC2)C1 [Navitoclax] (partner 0.5 µM),relative viability,NCI-H23; first compound 0.08 µM,0.906
same,relative viability,NCI-H23; first compound 0.253 µM,0.773
same,relative viability,NCI-H23; first compound 0.8 µM,0.872
same,relative viability,NCI-H23; first compound 2.53 µM,0.853
same,relative viability,SK-LU-1; first compound 0.08 µM,0.911
same,relative viability,SK-LU-1; first compound 0.253 µM,0.683
same,relative viability,SK-LU-1; first compound 0.8 µM,1.04
same,relative viability,SK-LU-1; first compound 2.53 µM,0.781
same,relative viability,LK-2; first compound 0.08 µM,1.1
same,relative viability,LK-2; first compound 0.253 µM,0.807
same,relative viability,LK-2; first compound 0.8 µM,0.806
same,relative viability,LK-2; first compound 2.53 µM,0.828
same,relative viability,LU99A; first compound 0.08 µM,0.753
same,relative viability,LU99A; first compound 0.253 µM,0.768
same,relative viability,LU99A; first compound 0.8 µM,0.791
same,relative viability,LU99A; first compound 2.53 µM,0.869
same,relative viability,EKVX; first compound 0.08 µM,0.938
same,relative viability,EKVX; first compound 0.253 µM,1
same,relative viability,EKVX; first compound 0.8 µM,0.943
same,relative viability,EKVX; first compound 2.53 µM,1.06
same,relative viability,NCI-H322M; first compound 0.08 µM,1.12
same,relative viability,NCI-H322M; first compound 0.253 µM,1.18
same,relative viability,NCI-H322M; first compound 0.8 µM,1.23
same,relative viability,NCI-H322M; first compound 2.53 µM,1.3
same,relative viability,RERF-LC-KJ; first compound 0.08 µM,0.996
same,relative viability,RERF-LC-KJ; first compound 0.253 µM,1.2
same,relative viability,RERF-LC-KJ; first compound 0.8 µM,0.887
same,relative viability,RERF-LC-KJ; first compound 2.53 µM,0.976
same,relative viability,NCI-H1666; first compound 0.08 µM,0.878
same,relative viability,NCI-H1666; first compound 0.253 µM,0.785
same,relative viability,NCI-H1666; first compound 0.8 µM,0.767
same,relative viability,NCI-H1666; first compound 2.53 µM,1.01
same,relative viability,EMC-BAC-2; first compound 0.08 µM,1.11
same,relative viability,EMC-BAC-2; first compound 0.253 µM,1.17
same,relative viability,EMC-BAC-2; first compound 0.8 µM,1.18
same,relative viability,EMC-BAC-2; first compound 2.53 µM,1.19
same,relative viability,NCI-H1975; first compound 0.08 µM,1.13
same,relative viability,NCI-H1975; first compound 0.253 µM,1.05
same,relative viability,NCI-H1975; first compound 0.8 µM,1.05
same,relative viability,NCI-H1975; first compound 2.53 µM,1.02
same,relative viability,EPLC-272H; first compound 0.08 µM,1.09
same,relative viability,EPLC-272H; first compound 0.253 µM,1.1
same,relative viability,EPLC-272H; first compound 0.8 µM,1.16
same,relative viability,EPLC-272H; first compound 2.53 µM,1.4
same,relative viability,HCC-827; first compound 0.08 µM,1.01
same,relative viability,HCC-827; first compound 0.253 µM,1
same,relative viability,HCC-827; first compound 0.8 µM,1.02
same,relative viability,HCC-827; first compound 2.53 µM,1.02
same,relative viability,SW 1573; first compound 0.08 µM,0.993
same,relative viability,SW 1573; first compound 0.253 µM,0.914
same,relative viability,SW 1573; first compound 0.8 µM,1.01
same,relative viability,SW 1573; first compound 2.53 µM,1.04
same,relative viability,HCC-78; first compound 0.08 µM,0.859
same,relative viability,HCC-78; first compound 0.253 µM,0.687
same,relative viability,HCC-78; first compound 0.8 µM,0.664
same,relative viability,HCC-78; first compound 2.53 µM,0.764
same,relative viability,ChaGo-K-1; first compound 0.08 µM,0.95
same,relative viability,ChaGo-K-1; first compound 0.8 µM,0.695
same,relative viability,ChaGo-K-1; first compound 2.53 µM,0.888
same,relative viability,NCI-H2126; first compound 0.08 µM,0.876
same,relative viability,NCI-H2126; first compound 0.253 µM,0.796
same,relative viability,NCI-H2126; first compound 0.8 µM,0.724
same,relative viability,NCI-H2126; first compound 2.53 µM,0.883
same,relative viability,LXF-289; first compound 0.08 µM,0.96
same,relative viability,LXF-289; first compound 0.253 µM,0.945
same,relative viability,LXF-289; first compound 0.8 µM,0.938
same,relative viability,LXF-289; first compound 2.53 µM,0.968
same,relative viability,PC-14; first compound 0.08 µM,1.01
same,relative viability,PC-14; first compound 0.253 µM,0.983
same,relative viability,PC-14; first compound 0.8 µM,0.987
same,relative viability,PC-14; first compound 2.53 µM,1.03
same,relative viability,NCI-H2405; first compound 0.08 µM,0.904
same,relative viability,NCI-H2405; first compound 0.253 µM,0.725
same,relative viability,NCI-H2405; first compound 0.8 µM,0.921
same,relative viability,NCI-H2405; first compound 2.53 µM,1.01
